# Experimental data published in patent US20240383908A1, “SYNTHESIS AND APPLICATION OF PHOSPHATASE DEGRADER” (HINOVA PHARMACEUTICALS INC., priority 2021, published 2024).
# Columns and labels:
# Format in all cases: cell-based
# SHP2 protein [1] = biological target: T1, SHP2 protein (Homo sapiens, UniProt Q06124); assay: Degradation activity on SHP2 protein in MIA Paca-2 cells (Western blot, DC50); parameters: endogenous in cells; host or cells: MIA Paca-2 cells; conditions: read-out: Degradation activity for differenct cell lines MIA Paca-2 (DC50)
# T1 sequence (Q06124 1-593): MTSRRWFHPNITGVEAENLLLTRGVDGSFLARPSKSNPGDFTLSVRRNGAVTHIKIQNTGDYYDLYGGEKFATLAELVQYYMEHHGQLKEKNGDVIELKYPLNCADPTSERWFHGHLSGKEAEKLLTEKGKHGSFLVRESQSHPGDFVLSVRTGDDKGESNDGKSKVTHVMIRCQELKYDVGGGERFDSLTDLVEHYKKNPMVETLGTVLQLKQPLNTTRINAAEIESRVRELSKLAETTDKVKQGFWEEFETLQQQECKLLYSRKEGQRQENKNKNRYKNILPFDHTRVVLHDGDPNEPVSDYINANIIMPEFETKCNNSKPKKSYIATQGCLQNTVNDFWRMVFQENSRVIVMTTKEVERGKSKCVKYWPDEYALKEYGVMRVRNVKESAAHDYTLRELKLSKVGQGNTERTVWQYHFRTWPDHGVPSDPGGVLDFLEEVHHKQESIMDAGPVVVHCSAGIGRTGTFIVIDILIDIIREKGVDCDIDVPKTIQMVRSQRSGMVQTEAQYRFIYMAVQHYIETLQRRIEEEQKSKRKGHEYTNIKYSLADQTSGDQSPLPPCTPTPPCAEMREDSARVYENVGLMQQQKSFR
# Summary of the method: (§1)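 Cells were treated 24 h at 37 °C with compound (0.1–100 nM final, 0.1% DMSO). SHP2 was measured by Western blot with GAPDH as loading control, densitometry normalized to DMSO (100%). DC50, the concentration giving 50% degradation, came from a dose-response fit.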
# MV-411 cell line = assay: Inhibition of cell proliferation, MV-411 (CCK-8); conditions: Homo sapiens, MV4-11, 120 h, MV411 cells, 5 days, read-out: Inhibition activity on the proliferation of different cell lines MV411 (IC50)
# Description: • MV-411 cell line (COBIER, CBP-60522) • FBS (GEMINI, Cat. No. 900-108) • 0.01M PBS (Biosharp, Cat. No. 162262) • IMDM (Hyclone, Cat. No. SH30228.01) • Penicillin-Streptomycin (Gibco, Cat. No. 15140122) • DMSO (Sigma, Cat. No. D5879) • Cell counting kit-8 (Signalway Antibody, Cat. No. CP002) • Centrifuge Tube, 15 ml (Excell Bio, Cat. No. CS015-0001) • Cell Culture Dish, (WHB, Cat. No. CS016-0128) • 96-well cell culture cluster (Corning, Cat. No. 3599)
# • (1) Cell culture medium: IMDM medium+10% FBS+1% Pen Strep; • (2) PBS buffer: PBS powder was dissolved in 2 L of ultrapure water and sterilized;
# (§2) (1) MV-411 cells were cultured in the cell culture medium, and then well-growing cells were selected and inoculated in a 96-well plate at 80 μL/well, with 2×10^4 cells/well. The plate was incubated overnight in a 5% CO2 cell incubator at 37° C.
# (§3) (2) 10 mM storage solution of each drug was prepared using dimethylsulfoxide (DMSO). The stock solution was diluted in a ratio of 1:3 with DMSO before use, and then the solution was serially diluted in a ratio of 1:3, to obtain 9 gradient concentrations. Each concentration was further diluted with the medium in a ratio of 1:200 (to ensure that the DMSO concentration in the culture system was 0.1%). Two wells were set for each concentration. 20 μL of each compound solution was added to the cell culture well (with a final concentration of 10 μM, 3.3 μM, 1.1 μM . . . ). The plate was gently shaken and mixed. Additionally, 3 negative control wells (only containing cells) and 3 blank control wells (only containing the medium) were included (6 wells were each added with 20 μL of DMSO diluted with the medium in a ratio of 1:200).
# (§4) (1) After 5 days of cultivation, 10 μL of CCK-8 was added to each well, and then the plate was further cultured for 3 h at 37° C. in a 5% CO2 cell incubator.
# (§5) (2) The absorbance (OD value) was measured at 450 nm with a multifunctional microplate reader. (3) The data were analyzed using the Dose-response-inhibition equation in GraphPad Prism8 software to obtain the IC50 value.
# MIA Paca-2 = assay: Inhibition of cell proliferation, MIA Paca-2 (CCK-8); conditions: Homo sapiens, MIA Paca-2 cells, read-out: Inhibition activity on the proliferation of different cell lines MIA Paca-2 (IC50)
# Description: as §2, §3, §4, §5
# Using a similar method, the IC50 value (nM) for the inhibitory activity of the compound according to the present invention against different cell lines was obtained, and the results are shown in Table 3 (++++: IC50>5 μM; +++: 1 μM<IC50<5 μM; ++: IC50<1 μM).
# SHP2 protein [2] = biological target: T1, SHP2 protein; assay: Degradation activity on SHP2 protein in NCI-H358 cells (Western blot, DC50); parameters: endogenous in cells; conditions: read-out: Degradation activity for differenct cell lines NCI-H358 (DC50)
# Summary of the method: as §1
Structure (SMILES),DC50 (SHP2 protein [1]) [nM],IC50 (MV-411 cell line) [nM],IC50 (MIA Paca-2) [nM],DC50 (SHP2 protein [2]) [nM]
CC1(N)CCN(c2cnc(Sc3cccc(NC(=O)CCCCCCCCN4C5CCC4CN(c4ccc(C(=O)NCc6ccc7c(c6)CN(C6CCC(=O)NC6=O)C7=O)nn4)C5)c3)cn2)CC1 (stereo not drawn) [Compound 119],< 100,< 1000,1000 to 5000,< 100
CC1(N)CCN(c2cnc(Sc3cccc(NC(=O)CCCCCCCCN4CCN(c5ccc(C(=O)NCc6ccc7c(c6)CN(C6CCC(=O)NC6=O)C7=O)nn5)CC4)c3)cn2)CC1 (stereo not drawn) [Compound 63],< 100,< 1000,1000 to 5000,< 100
Cc1ncsc1-c1ccc([C@H](C)NC(=O)[C@@H]2C[C@@H](O)CN2C(=O)[C@@H](NC(=O)CCCCCCCCN2CCN(C(=O)CCC(=O)Nc3cccc(Sc4ncc(N5CCC(C)(N)CC5)nc4N)c3Cl)CC2)C(C)(C)C)cc1 [Compound 999],< 100,< 1000,1000 to 5000,< 100

# Results, then the compound that gave them:
DC50 (SHP2 protein [1]) [nM],IC50 (MV-411 cell line) [nM],IC50 (MIA Paca-2) [nM],DC50 (SHP2 protein [2]) [nM],Structure (SMILES)
< 100,1000 to 5000,1000 to 5000,< 100,CC1(N)CCN(c2cnc(Sc3cccc(NC(=O)CCCCCCCCN4CCN(c5ccc(C(=O)NCc6ccc7c(c6)CN(C6CCC(=O)NC6=O)C7=O)nn5)CC4C(F)(F)F)c3)cn2)CC1 (stereo not drawn) [Compound 174]
< 100,< 1000,1000 to 5000,100 to 1000,NC1(CO)CCN(c2cnc(Sc3cccc(NC(=O)CCCCCCN4CC5(CCN(c6ccc(C(=O)NCc7ccc8c(c7)CN(C7CCC(=O)NC7=O)C8=O)nn6)C5)C4)c3)cn2)CC1 (stereo not drawn) [Compound 168]
< 100,< 1000,1000 to 5000,100 to 1000,CCC1(N)CCN(c2cnc(Sc3cccc(NC(=O)CCCCCCN4CC5(CCN(c6ccc(C(=O)NCc7ccc8c(c7)CN(C7CCC(=O)NC7=O)C8=O)nn6)C5)C4)c3)cn2)CC1 (stereo not drawn) [Compound 161]
